Key:
[1] = target: Tyrosine-protein kinase ABL1 (Homo sapiens) (UniProt P00519); details: Compound concentration 1000.0 nM
[2] = target: T1, Serine/threonine-protein kinase Sgk1 (Homo sapiens) (UniProt O00141); details: Compound concentration 1000.0 nM
T1 sequence (whole entry): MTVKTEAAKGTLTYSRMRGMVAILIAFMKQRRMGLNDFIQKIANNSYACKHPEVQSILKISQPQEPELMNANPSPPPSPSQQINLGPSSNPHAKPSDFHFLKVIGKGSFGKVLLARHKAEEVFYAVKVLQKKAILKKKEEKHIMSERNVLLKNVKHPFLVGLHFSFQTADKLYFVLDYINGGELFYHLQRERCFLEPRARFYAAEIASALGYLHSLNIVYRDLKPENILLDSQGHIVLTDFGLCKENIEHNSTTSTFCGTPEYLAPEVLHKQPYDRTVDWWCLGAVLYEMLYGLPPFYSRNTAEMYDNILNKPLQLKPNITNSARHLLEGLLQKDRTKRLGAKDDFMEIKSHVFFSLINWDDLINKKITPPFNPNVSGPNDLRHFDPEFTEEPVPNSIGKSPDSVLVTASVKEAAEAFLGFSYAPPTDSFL

[3] = target: Sigma non-opioid intracellular receptor 1 (Homo sapiens, UniProt Q99720); details: Compound concentration 10.0 uM
[4] = target: Mitogen-activated protein kinase kinase kinase 11 (Homo sapiens) (UniProt Q16584); details: Compound concentration 1000.0 nM
[5] = target: Calcium/calmodulin-dependent protein kinase type II subunit alpha (Homo sapiens) (UniProt Q9UQM7); details: Compound concentration 1000.0 nM
[6] = target: Fibroblast growth factor receptor 3 (Homo sapiens) (UniProt P22607); details: Compound concentration 1000.0 nM
[7] = target: T2, Ephrin type-B receptor 1 (Homo sapiens) (UniProt P54762); details: Compound concentration 1000.0 nM
T2 sequence (whole entry): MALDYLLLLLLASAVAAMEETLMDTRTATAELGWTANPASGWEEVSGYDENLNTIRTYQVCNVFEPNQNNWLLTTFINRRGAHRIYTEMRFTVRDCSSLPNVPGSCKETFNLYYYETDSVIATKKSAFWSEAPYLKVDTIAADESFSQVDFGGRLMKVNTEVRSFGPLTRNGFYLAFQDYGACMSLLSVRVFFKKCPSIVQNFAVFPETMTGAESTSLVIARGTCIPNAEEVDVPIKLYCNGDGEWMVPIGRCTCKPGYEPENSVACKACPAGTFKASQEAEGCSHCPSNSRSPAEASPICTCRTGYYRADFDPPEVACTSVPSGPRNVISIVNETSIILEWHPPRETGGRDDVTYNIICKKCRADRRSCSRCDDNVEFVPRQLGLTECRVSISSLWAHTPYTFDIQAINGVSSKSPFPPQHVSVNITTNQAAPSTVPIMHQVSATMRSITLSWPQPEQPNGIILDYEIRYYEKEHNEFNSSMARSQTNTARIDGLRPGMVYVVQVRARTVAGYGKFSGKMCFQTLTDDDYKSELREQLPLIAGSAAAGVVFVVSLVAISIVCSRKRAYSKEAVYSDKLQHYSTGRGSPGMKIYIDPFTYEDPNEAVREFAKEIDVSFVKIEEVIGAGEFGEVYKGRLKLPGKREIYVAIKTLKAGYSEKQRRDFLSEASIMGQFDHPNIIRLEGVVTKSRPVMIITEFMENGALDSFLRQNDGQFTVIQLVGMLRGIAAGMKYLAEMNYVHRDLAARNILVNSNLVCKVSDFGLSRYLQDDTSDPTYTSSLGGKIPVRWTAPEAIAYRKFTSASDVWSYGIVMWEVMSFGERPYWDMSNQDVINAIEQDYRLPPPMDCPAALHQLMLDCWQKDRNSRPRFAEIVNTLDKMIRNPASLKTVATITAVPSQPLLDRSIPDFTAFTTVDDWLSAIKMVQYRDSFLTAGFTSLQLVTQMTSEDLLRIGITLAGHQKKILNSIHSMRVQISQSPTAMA

[8] = target: Serine/threonine-protein kinase 10 (Homo sapiens) (UniProt O94804); details: Compound concentration 1000.0 nM
[9] = target: T3, Cyclin-dependent kinase-like 2 (Homo sapiens) (UniProt Q92772); details: Compound concentration 1000.0 nM
T3 sequence (whole entry): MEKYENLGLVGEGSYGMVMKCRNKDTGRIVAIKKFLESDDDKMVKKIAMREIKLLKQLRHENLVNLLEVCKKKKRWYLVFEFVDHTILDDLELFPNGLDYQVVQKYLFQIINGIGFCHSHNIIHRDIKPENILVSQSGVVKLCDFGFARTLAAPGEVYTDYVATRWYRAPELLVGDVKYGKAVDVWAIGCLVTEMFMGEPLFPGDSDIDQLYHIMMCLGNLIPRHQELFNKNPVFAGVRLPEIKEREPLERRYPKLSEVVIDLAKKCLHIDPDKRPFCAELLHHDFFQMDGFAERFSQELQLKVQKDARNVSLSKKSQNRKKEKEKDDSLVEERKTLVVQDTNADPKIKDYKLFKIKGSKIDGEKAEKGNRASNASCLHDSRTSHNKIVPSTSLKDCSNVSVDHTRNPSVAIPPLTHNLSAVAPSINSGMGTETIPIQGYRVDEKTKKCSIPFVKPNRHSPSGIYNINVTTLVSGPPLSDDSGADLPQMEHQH

[10] = target: Serine/threonine-protein kinase TNNI3K (Homo sapiens) (UniProt Q59H18); details: Compound concentration 1000.0 nM
[11] = target: T4, TGF-beta receptor type-1 (Homo sapiens) (UniProt P36897); details: Compound concentration 1000.0 nM
T4 sequence (whole entry): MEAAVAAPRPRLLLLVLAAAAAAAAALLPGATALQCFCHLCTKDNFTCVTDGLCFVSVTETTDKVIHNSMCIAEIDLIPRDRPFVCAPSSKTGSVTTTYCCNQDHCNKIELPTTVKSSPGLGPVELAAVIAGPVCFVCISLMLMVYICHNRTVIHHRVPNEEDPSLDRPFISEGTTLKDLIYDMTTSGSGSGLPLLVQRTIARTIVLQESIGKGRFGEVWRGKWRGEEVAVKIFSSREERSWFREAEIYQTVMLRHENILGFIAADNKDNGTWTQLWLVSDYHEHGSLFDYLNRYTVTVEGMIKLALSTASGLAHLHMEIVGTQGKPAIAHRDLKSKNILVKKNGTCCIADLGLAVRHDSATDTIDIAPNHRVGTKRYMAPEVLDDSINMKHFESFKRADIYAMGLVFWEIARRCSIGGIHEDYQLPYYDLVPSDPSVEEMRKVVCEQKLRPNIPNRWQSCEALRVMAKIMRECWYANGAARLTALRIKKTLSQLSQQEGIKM

[12] = target: Alpha-1A adrenergic receptor (Homo sapiens) (UniProt P35348); details: Compound concentration 10.0 uM
[13] = target: Ribosomal protein S6 kinase alpha-2 (Homo sapiens) (UniProt Q15349); details: Compound concentration 1000.0 nM
Sequence of Ribosomal protein S6 kinase alpha-2 (Homo sapiens) (Q15349 whole entry): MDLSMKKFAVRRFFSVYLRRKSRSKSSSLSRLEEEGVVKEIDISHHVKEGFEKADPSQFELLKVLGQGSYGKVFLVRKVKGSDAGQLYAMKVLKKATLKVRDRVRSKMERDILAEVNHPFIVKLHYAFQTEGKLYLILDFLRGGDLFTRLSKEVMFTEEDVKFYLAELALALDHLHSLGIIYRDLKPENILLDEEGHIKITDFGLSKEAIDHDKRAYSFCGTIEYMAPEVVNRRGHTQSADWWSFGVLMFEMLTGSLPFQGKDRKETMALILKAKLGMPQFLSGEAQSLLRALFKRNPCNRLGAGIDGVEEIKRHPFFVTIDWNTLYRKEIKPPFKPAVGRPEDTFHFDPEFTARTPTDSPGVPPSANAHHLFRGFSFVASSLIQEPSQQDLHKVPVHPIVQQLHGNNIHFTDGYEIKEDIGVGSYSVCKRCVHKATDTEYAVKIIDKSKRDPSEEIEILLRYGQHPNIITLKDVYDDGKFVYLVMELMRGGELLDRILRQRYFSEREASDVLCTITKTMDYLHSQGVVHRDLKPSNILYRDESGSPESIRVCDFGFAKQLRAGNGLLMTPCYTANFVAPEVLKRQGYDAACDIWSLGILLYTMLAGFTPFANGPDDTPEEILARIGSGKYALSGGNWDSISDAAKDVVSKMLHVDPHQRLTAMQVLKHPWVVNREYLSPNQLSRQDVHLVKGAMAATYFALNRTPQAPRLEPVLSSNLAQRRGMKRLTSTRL

Sequence of Alpha-1A adrenergic receptor (Homo sapiens) (P35348 whole entry): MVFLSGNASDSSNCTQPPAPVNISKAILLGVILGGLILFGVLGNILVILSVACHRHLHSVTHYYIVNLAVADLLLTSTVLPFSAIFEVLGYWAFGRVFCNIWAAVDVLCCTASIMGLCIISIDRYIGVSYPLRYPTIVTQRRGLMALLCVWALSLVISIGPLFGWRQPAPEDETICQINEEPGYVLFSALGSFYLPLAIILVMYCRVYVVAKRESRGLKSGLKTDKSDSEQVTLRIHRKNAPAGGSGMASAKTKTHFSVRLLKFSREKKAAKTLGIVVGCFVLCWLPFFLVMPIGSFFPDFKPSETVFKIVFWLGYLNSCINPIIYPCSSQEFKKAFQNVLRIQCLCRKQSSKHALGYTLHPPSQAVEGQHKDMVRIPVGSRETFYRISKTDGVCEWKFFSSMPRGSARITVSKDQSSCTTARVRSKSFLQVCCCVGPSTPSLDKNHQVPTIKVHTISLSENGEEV
Sequence of Serine/threonine-protein kinase 10 (Homo sapiens) (O94804 whole entry, looked up): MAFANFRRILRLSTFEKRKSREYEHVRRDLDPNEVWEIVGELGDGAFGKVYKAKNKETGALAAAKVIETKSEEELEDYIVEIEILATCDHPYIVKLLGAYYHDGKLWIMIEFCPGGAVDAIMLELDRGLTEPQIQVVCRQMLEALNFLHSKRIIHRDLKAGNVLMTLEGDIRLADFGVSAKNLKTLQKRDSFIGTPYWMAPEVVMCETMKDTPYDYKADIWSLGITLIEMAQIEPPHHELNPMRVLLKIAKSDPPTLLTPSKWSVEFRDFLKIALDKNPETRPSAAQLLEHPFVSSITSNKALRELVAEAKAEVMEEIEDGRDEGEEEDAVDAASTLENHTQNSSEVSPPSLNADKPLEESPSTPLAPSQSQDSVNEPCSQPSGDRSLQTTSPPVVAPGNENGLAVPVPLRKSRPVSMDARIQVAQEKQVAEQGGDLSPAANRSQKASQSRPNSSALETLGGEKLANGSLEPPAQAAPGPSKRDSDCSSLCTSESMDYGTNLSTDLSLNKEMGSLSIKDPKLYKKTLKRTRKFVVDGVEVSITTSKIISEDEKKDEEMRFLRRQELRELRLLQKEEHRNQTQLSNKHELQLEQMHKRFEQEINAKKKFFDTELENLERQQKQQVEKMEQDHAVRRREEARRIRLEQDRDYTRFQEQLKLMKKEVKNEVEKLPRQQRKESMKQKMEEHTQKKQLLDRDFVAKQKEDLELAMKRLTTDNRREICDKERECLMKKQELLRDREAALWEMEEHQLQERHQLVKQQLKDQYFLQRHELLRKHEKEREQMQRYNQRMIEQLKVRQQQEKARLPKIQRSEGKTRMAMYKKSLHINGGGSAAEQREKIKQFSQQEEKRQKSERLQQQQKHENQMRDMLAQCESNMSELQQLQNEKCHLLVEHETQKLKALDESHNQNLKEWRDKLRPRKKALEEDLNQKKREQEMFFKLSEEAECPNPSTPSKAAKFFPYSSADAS
Sequence of Mitogen-activated protein kinase kinase kinase 11 (Homo sapiens) (Q16584 whole entry, looked up): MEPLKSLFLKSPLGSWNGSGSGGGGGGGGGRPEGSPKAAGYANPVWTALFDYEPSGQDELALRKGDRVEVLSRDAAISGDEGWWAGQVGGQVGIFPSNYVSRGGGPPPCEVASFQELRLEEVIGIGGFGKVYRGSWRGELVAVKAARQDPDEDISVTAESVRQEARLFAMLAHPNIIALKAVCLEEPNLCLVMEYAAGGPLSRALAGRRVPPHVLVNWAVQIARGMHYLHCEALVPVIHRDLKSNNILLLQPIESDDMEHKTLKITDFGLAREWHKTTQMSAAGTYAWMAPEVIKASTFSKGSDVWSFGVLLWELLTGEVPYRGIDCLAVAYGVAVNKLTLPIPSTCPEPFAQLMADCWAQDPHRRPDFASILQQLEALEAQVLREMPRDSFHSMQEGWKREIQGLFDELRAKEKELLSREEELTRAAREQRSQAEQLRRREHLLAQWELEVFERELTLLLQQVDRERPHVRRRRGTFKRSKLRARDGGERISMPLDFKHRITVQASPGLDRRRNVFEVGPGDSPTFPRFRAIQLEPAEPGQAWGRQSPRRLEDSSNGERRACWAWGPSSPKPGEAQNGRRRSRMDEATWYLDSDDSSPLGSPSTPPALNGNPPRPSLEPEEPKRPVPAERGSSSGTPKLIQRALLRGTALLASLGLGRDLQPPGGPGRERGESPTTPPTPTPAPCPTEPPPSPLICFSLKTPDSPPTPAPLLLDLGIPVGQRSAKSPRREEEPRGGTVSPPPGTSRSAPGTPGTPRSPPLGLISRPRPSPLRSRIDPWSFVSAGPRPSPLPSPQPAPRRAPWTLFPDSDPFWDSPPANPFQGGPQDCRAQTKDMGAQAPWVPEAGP
Sequence of Serine/threonine-protein kinase TNNI3K (Homo sapiens) (Q59H18 whole entry): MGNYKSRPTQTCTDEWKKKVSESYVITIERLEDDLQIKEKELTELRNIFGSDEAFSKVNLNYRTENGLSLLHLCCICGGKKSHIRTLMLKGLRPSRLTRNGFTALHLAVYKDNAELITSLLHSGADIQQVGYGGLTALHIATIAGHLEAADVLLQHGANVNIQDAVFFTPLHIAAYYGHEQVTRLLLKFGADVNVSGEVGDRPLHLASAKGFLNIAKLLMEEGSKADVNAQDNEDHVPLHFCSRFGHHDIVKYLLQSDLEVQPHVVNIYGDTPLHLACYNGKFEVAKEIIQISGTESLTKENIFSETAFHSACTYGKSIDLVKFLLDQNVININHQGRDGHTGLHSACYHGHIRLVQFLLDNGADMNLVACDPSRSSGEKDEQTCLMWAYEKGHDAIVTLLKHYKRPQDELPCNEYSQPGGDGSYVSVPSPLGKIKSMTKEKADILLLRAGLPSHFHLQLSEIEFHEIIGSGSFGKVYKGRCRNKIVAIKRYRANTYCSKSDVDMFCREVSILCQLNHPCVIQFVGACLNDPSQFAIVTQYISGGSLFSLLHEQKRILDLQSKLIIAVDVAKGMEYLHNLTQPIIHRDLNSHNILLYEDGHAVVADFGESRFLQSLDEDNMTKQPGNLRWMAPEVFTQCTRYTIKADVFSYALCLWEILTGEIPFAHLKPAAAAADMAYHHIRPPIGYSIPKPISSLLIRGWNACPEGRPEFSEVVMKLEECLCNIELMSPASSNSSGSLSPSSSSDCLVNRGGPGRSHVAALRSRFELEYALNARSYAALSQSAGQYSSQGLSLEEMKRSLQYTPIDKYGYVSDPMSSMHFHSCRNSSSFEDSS
Sequence of Tyrosine-protein kinase ABL1 (Homo sapiens) (P00519 whole entry): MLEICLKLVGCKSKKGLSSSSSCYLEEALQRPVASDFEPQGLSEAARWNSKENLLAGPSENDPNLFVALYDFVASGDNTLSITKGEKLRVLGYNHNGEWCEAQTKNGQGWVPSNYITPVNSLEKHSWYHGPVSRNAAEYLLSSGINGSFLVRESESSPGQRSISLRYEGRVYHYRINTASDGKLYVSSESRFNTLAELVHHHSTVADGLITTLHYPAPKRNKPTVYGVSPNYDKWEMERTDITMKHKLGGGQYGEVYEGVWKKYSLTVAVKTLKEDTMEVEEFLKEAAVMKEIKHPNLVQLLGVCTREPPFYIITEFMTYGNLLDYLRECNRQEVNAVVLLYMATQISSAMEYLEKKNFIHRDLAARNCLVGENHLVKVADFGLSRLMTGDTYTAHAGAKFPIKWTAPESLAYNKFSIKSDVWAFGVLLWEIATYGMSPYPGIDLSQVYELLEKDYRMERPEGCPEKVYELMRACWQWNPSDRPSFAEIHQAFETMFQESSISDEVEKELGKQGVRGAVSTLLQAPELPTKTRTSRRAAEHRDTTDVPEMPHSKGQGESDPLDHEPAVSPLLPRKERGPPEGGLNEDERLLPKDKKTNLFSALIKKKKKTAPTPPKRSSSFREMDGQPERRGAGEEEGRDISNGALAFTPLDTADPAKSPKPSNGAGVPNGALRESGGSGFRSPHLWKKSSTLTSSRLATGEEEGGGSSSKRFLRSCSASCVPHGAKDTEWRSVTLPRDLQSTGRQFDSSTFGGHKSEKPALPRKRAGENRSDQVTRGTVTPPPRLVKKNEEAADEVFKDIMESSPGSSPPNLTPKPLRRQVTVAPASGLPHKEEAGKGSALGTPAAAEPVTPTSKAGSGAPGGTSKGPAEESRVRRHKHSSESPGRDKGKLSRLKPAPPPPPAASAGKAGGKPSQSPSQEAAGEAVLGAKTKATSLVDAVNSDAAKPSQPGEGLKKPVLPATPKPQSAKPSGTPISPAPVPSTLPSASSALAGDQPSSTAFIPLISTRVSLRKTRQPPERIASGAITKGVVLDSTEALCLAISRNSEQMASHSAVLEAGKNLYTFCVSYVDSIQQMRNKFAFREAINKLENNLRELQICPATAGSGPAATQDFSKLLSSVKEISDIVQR

Row | Structure (SMILES) | residual activity [1] [%] | residual activity [2] [%] | inhibition [3] [%] | residual activity [4] [%] | residual activity [5] [%] | residual activity [6] [%] | residual activity [7] [%] | residual activity [8] [%] | residual activity [9] [%] | residual activity [10] [%] | residual activity [11] [%] | inhibition [12] [%] | residual activity [13] [%]
1 | Cc1nc(C2CCN(C(=O)c3ccc(OC(F)(F)F)cc3N)CC2)c2ncc(N3CCN(C)CC3)cc2n1 [BAY-693] | 92 | 100 | 72.7 | 100 | 93 | 100 | 95 | 96 | 100 | 100 | 80 | -9.85 | 100
2 | CN1CCN(c2cnc3c(C4CCN(C(=O)c5ccc(OC(F)(F)F)cc5N)CC4)ncnc3c2)CC1 [BAY-885] | 86 | 100 | 72.4 | 100 | 69 | 100 | 100 | 52 | 100 | 100 | 90 | 1.11 | 100

From ChEMBL document CHEMBL4507268 (2021)
